Active and inactive are the calls of the source. The calls are words filed in the database; no cut-off is given here.
Tests used:
HUVEC [1] = experiment: Upregulation of cytosolic p65 level in cisplatin-treated HUVEC cells at 30 uM incubated for 1 hr by Western blot analysis; type: functional, cell-based; conditions: Homo sapiens
HUVEC [2] = experiment: Downregulation of cisplatin-induced ICAM1 protein expression in HUVEC cells at 30 uM preincubated with PI3K inhibitor, wortmannin followed by compound addition and further incubated for 1 hr by Western blot analysis; type: functional, cell-based; conditions: Homo sapiens
U-937 = experiment: Inhibition of cisplatin-induced ICAM1 dependent HUVEC cells adhesion to human U-937 cells at 10 to 30 uM preincubated with HUVEC cells for 4.5 hrs in presence of cisplatin followed by U-937 cell suspension addition and measured after 1 hr by BCECF fluorescent probe based assay; type: functional; conditions: dose 10-30 µM, time 5.5 hrs
HUVEC [3] = experiment: Upregulation of cytosolic p65 level in cisplatin-treated HUVEC cells at 30 uM preincubated with PI3K inhibitor, wortmannin followed by compound addition and further incubated for 1 hr by Western blot analysis; type: functional, cell-based; conditions: Homo sapiens
HUVEC [4] = experiment: Activation of PI3K in cisplatin-treated HUVEC cells assessed as increase PIP3 formation pretreated for 30 mins followed by cisplatin addition by immunoprecipitation analysis; type: cell-based; conditions: Homo sapiens, filed as activator, dose 10-30 µM
HUVEC [5] = experiment: Inhibition of cisplatin-induced store operated Ca2+ release in HUVEC cells at 30 uM preincubated with compound in presence of eNOS inhibitor, N(G)-nitro-L-arginine methyl ester followed by cisplatin stimulation by Fura-2 AM staining based calcium influx assay; type: functional, cell-based; conditions: Homo sapiens
HUVEC [6] = experiment: Improvement in cisplatin-induced endothelial monolayer integrity in HUVEC cells assessed as reduction in transmembrane movement of albumin at 30 uM preincubated with compound in presence of eNOS inhibitor, N(G)-nitro-L-arginine methyl ester followed by cisplatin stimulation and measured after 2 hrs; type: functional, cell-based; conditions: Homo sapiens
HUVEC [7] = experiment: Inhibition of cisplatin-induced TRPC1 phosphorylation in [32P] orthophosphate labeled HUVEC cells at 30 uM incubated for 15 mins in presence of cisplatin and eNOS inhibitor, N(G)-nitro-L-arginine methyl ester by Western blot analysis; type: cell-based; conditions: Homo sapiens
HUVEC [8] = experiment: Inhibition of cisplatin-induced ICAM-1 mRNA expression in HUVEC cells preincubated for 30 mins followed by cisplatin addition and measured after 24 hrs by RT-PCR analysis; type: functional, cell-based; conditions: Homo sapiens, dose 10-30 µM, time 24.5 hrs
HUVEC [9] = experiment: Effect on total eNOS protein level in cisplatin-treated HUVEC cells at 30 uM measured after 5 to 240 mins by Western blot analysis; type: functional, cell-based; conditions: Homo sapiens, time 5-240 min
HUVEC [10] = experiment: Activation of AKT in cisplatin-treated HUVEC cells assessed as increase in AKT phosphorylation at 30 uM measured after 5 to 240 mins by Western blot analysis; type: cell-based; conditions: Homo sapiens, filed as activator, time 5-240 min
HUVEC [11] = experiment: Downregulation of cisplatin-induced ICAM1 protein expression in HUVEC cells at 30 uM preincubated with eNOS inhibitor, N(G)-nitro-L-arginine methyl ester followed by compound addition and further incubated for 1 hr by Western blot analysis; type: functional, cell-based; conditions: Homo sapiens
HUVEC [12] = experiment: Upregulation of cytosolic p65 level in cisplatin-treated HUVEC cells at 30 uM preincubated with eNOS inhibitor, N(G)-nitro-L-arginine methyl ester followed by compound addition and further incubated for 1 hr by Western blot analysis; type: functional, cell-based; conditions: Homo sapiens
HUVEC [13] = experiment: Improvement in cisplatin-induced endothelial monolayer integrity in HUVEC cells assessed as reduction in transmembrane movement of albumin at 30 uM preincubated with compound in presence of PI3K inhibitor, wortmannin followed by cisplatin stimulation and measured after 2 hrs; type: functional, cell-based; conditions: Homo sapiens
[14] = molecular target: T1, Nitric oxide synthase 3 (Homo sapiens) (UniProt P29474); experiment: Activation of eNOS activity in cisplatin-treated HUVEC cells assessed as increase in intracellular cGMP level at 30 uM preincubated with eNOS inhibitor, N(G)-nitro-L-arginine methyl ester followed by compound addition and further incubated for 15 mins by radioimmunoassay; type: cell-based
T1 sequence (whole entry): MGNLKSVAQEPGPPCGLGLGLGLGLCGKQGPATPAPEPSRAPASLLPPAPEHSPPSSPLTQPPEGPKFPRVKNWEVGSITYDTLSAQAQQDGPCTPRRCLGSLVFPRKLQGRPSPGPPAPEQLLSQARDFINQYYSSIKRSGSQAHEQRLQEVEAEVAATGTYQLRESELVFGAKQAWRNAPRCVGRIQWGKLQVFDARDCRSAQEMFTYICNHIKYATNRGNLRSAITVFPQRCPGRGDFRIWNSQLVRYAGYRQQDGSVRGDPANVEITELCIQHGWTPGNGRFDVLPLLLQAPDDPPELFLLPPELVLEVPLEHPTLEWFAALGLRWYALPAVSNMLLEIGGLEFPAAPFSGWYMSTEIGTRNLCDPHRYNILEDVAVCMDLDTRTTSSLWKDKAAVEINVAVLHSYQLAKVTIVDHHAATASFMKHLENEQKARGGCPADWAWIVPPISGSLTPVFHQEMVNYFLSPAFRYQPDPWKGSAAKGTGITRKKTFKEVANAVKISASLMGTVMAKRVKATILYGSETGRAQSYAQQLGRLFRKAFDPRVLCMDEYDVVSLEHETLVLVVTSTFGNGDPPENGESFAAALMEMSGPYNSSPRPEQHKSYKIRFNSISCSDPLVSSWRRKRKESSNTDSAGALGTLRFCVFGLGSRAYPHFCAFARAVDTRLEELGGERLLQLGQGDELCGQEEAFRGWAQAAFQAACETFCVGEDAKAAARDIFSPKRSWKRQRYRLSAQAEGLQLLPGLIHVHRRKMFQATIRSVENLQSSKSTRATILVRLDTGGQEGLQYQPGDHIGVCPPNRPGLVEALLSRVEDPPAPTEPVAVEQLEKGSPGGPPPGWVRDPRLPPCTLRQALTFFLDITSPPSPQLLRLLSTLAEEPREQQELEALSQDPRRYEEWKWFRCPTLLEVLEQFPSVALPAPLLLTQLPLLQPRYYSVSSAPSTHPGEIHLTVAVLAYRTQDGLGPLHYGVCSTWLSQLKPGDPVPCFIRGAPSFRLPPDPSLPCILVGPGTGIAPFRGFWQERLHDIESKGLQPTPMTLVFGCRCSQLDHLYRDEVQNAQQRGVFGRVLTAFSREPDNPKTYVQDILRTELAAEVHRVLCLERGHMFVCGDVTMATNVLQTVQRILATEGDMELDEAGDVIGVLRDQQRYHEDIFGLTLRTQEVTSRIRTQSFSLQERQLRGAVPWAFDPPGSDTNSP

HUVEC [15] = experiment: Downregulation of cisplatin-induced PKCalpha translocation in HUVEC cells at 30 uM incubated for 15 mins in presence of cisplatin and PI3K inhibitor, wortmannin by Western blot analysis; type: functional, cell-based; conditions: Homo sapiens
HUVEC [16] = experiment: Inhibition of cisplatin-induced ICAM-1 protein expression in HUVEC cells preincubated for 30 mins followed by cisplatin addition and measured after 24 hrs by Western blot analysis; type: functional, cell-based; conditions: Homo sapiens, dose 10-30 µM, time 24.5 hrs

In the case of `C=C1CC[C@@H]2[C@](C)(CO)[C@H](O)CC[C@@]2(C)[C@@H]1C/C=C1/C(=O)OC[C@H]1O` [ANDROGRAPHOLIDE], the Activity (HUVEC [1]) is reported as “Active”, the Activity (HUVEC [2]) is reported as “inactive” and the inhibition (U-937) is reported as “Active”. The Activity (HUVEC [3]) was “inactive”, the Activity (HUVEC [4]) was “Dose-Dependent Effect” and the inhibition (HUVEC [5]) was “inactive”. The Activity (HUVEC [6]) was “inactive”, the inhibition (HUVEC [7]) was “inactive” and the inhibition (HUVEC [8]) was “Dose-Dependent Effect”. For the same compound, the Activity (HUVEC [9]) was “inactive”, the Activity (HUVEC [10]) was “Active” and the Activity (HUVEC [11]) was “inactive”. For the same compound, the Activity (HUVEC [12]) was “inactive”, the Activity (HUVEC [13]) was “inactive” and the Activity [14] was “inactive”. The Activity (HUVEC [15]) was “inactive” and the inhibition (HUVEC [16]) was “Dose-Dependent Effect”.

From ChEMBL document CHEMBL5223073, “Andrographolide suppresses cisplatin-induced endothelial hyperpermeability through activation of PI3K/Akt and eNOS -derived nitric oxide” (Bioorg Med Chem, 2020)
